According to ChEMBL document CHEMBL5390264, “Exploring Fatty Acid Mimetics as NR4A Ligands” (J Med Chem, 2023):
Blank lines part the entries; values can stand above or below the molecule they belong to. Calls of active or inactive are those of the source. No cut-off for these calls is given here.

What was measured:
[1] = molecular target: T1, Nuclear receptor subfamily 4 group A member 2 (Homo sapiens, UniProt P43354); assay: Agonist activity at human Nurr1 LBD transiently transfected in HEK293T cells incubated for 16 hrs by Gal4-hybrid reporter gene based Dual-glo luciferase assay; type: cell-based
[2] = molecular target: T2, Nuclear receptor subfamily 4immunitygroup A member 1 (Homo sapiens, UniProt P22736); assay: Modulation of human Nur77 LBD transiently transfected in HEK293T cells at 100 to 200 uM incubated for 16 hrs by Gal4-hybrid reporter gene based Dual-glo luciferase assay; type: cell-based; details: dose 100-200 µM
[3] = molecular target: T2, Nuclear receptor subfamily 4immunitygroup A member 1; assay: Agonist activity at human Nur77 LBD transiently transfected in HEK293T cells incubated for 16 hrs by Gal4-hybrid reporter gene based Dual-glo luciferase assay; type: cell-based
[4] = molecular target: T3, Nuclear receptor subfamily 4 group A member 3 (Homo sapiens, UniProt Q92570); assay: Agonist activity at human NOR-1 LBD transiently transfected in HEK293T cells incubated for 16 hrs by Gal4-hybrid reporter gene based Dual-glo luciferase assay; type: cell-based
[5] = molecular target: T3, Nuclear receptor subfamily 4 group A member 3; assay: Agonist activity at human NOR-1 LBD transiently transfected in HEK293T cells assessed as maximal activation incubated for 16 hrs by Gal4-hybrid reporter gene based Dual-glo luciferase assay relative to control; type: cell-based; details: filed as agonist
[6] = molecular target: T2, Nuclear receptor subfamily 4immunitygroup A member 1; assay: Agonist activity at human Nur77 LBD transiently transfected in HEK293T cells assessed as maximal activation incubated for 16 hrs by Gal4-hybrid reporter gene based Dual-glo luciferase assay relative to control; type: cell-based; details: filed as agonist
[7] = molecular target: T3, Nuclear receptor subfamily 4 group A member 3; assay: Inverse agonist activity at human NOR-1 LBD transiently transfected in HEK293T cells incubated for 16 hrs by Gal4-hybrid reporter gene based Dual-glo luciferase assay; type: cell-based
[8] = molecular target: T1, Nuclear receptor subfamily 4 group A member 2; assay: Inverse agonist activity at human Nurr1 LBD transiently transfected in HEK293T cells incubated for 16 hrs by Gal4-hybrid reporter gene based Dual-glo luciferase assay; type: cell-based
[9] = molecular target: T2, Nuclear receptor subfamily 4immunitygroup A member 1; assay: Inverse agonist activity at human Nur77 LBD transiently transfected in HEK293T cells incubated for 16 hrs by Gal4-hybrid reporter gene based Dual-glo luciferase assay; type: cell-based
[10] = molecular target: T3, Nuclear receptor subfamily 4 group A member 3; assay: Modulation of human NOR-1 LBD transiently transfected in HEK293T cells at 100 to 200 uM incubated for 16 hrs by Gal4-hybrid reporter gene based Dual-glo luciferase assay; type: cell-based; details: dose 100-200 µM
[11] = molecular target: T1, Nuclear receptor subfamily 4 group A member 2; assay: Binding affinity to recombinant N-terminal 6His-tagged Nurr1 LBD (362 to 598 residues) (unknown origin) expressed in Escherichia coli BL21(DE3)-R3-pRARE2 cells assessed as thermal stability by measuring change in melting temperature at 100 uM by SYPRO orange dye based differential scanning fluorimetry analysis

T2 sequence (P22736 whole entry, the tested form may be a part): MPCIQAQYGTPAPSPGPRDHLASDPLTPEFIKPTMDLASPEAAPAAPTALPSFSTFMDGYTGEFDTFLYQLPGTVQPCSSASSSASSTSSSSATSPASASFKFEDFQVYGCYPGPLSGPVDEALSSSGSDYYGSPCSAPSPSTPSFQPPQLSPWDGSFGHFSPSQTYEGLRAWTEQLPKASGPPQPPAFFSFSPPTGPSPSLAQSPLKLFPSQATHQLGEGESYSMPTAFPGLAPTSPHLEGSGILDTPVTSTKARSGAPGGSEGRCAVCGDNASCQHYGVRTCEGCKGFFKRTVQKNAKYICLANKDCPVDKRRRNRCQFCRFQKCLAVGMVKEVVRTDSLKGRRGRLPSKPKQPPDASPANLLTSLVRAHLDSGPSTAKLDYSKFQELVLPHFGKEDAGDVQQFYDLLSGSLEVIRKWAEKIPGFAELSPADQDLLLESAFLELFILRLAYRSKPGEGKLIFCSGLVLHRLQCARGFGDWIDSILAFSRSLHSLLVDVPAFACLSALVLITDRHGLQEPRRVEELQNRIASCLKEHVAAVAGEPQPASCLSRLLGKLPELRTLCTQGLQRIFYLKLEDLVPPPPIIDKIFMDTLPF
T3 sequence (Q92570 whole entry, the tested form may be a part): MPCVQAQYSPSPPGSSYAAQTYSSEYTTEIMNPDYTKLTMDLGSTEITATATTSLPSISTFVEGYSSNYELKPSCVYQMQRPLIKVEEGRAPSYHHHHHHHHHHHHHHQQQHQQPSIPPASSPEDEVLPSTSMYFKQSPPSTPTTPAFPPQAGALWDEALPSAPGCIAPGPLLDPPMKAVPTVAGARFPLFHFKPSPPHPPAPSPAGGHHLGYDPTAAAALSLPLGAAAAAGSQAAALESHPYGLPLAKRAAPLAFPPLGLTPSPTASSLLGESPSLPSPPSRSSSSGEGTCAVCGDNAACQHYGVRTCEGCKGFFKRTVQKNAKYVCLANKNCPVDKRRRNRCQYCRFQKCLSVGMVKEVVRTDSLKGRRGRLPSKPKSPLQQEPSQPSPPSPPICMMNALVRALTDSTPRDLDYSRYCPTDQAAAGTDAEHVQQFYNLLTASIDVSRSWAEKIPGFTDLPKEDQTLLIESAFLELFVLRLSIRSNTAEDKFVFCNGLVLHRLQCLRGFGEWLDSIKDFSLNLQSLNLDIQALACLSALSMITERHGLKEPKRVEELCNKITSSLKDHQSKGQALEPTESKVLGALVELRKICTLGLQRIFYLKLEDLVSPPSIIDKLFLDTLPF
T1 sequence (P43354 whole entry, the tested form may be a part): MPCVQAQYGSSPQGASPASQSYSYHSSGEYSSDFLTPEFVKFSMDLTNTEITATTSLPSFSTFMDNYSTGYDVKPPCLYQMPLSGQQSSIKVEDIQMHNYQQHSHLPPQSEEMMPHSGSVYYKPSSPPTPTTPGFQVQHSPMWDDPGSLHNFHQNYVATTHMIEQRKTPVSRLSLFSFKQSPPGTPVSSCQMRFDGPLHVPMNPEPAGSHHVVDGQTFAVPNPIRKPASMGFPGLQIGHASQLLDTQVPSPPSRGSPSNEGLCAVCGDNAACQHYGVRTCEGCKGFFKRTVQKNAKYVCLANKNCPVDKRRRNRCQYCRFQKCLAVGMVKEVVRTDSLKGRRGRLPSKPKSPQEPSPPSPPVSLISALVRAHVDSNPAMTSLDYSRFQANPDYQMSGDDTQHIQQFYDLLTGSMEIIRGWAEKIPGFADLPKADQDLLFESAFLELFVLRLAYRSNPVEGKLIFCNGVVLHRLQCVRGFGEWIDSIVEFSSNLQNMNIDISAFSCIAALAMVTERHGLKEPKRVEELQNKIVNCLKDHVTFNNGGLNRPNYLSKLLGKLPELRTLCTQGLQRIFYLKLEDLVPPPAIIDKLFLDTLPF

EC50 ([1]; read-out: EC50): 0.05 µM
SMILES: O=C(O)c1ccc(OCc2ccccc2Cl)cc1

EC50 [3]: 8 µM
EC50 [4]: 13 µM
Emax [5]: 166%
EC50 ([1]; read-out: EC50): 9 µM
Emax [6]: 158%
SMILES: O=C(O)c1ccc(OCc2ccccc2)cc1

EC50 ([1]; read-out: EC50): 3 µM
SMILES: O=C(O)c1cccc(OCc2cccc(F)c2)c1

Activity [10]: inactive
SMILES: O=C(O)CC(c1ccccc1)c1ccccc1

Activity [2]: inactive
SMILES: COc1ccccc1CC(=O)O

EC50 [3]: 0.04 µM
EC50 [4]: 0.15 µM
SMILES: O=C(O)c1cccc(OCc2ccc(Cl)cc2Cl)c1

Activity [10]: inactive
SMILES: CN(C)c1ccc(/N=N/c2ccccc2C(=O)O)cc1

Activity [10]: inactive
Activity [2]: inactive
SMILES: O=Cc1ccc(C(=O)O)cc1

EC50 ([1]; read-out: EC50): 8 µM
SMILES: O=C(O)c1cccc(OCc2ccccc2)c1

IC50 [7]: 111 µM
IC50 [8]: > 100 µM
IC50 [9]: 99 µM
SMILES: O=C(O)c1ccccc1C(=O)c1ccc(Cl)cc1

IC50 [7]: > 100 µM
IC50 [9]: > 100 µM
SMILES: O=C(O)c1ccccc1CCc1ccccc1

EC50 [3]: > 100 µM
EC50 [4]: 73 µM
SMILES: CCc1c(C(=O)O)cnn1-c1ccccc1

EC50 [3]: 9 µM
EC50 [4]: 6 µM
Emax [5]: 148%
EC50 ([1]; read-out: EC50): 6 µM
Emax [6]: 158%
SMILES: O=C(O)c1ccc(-c2cccc(F)c2)o1

EC50 [3]: > 100 µM
EC50 [4]: > 100 µM
EC50 ([1]; read-out: EC50): 90 µM
SMILES: O=C(O)CCC(=O)c1ccccc1

EC50 ([1]; read-out: EC50): 19 µM
SMILES: O=C(O)c1cccc(OCc2ccc(F)cc2)c1

Activity [2]: inactive
SMILES: O=C(O)c1ccnc2ccccc12

EC50 [3]: 48 µM
EC50 [4]: 56 µM
Emax [5]: 136%
EC50 ([1]; read-out: EC50): 54 µM
Emax [6]: 183%
SMILES: O=C(O)c1cccc2ccccc12 [NAPHTHOIC ACID]

EC50 ([1]; read-out: EC50): 3 µM
SMILES: O=C(O)c1cccc(OCc2ccccc2Cl)c1

Continued, molecule first:

SMILES: CCC(Oc1cc(Cl)cc(Cl)c1)C(=O)O (stereo unspecified)
Activity [2]: inactive

SMILES: CSc1nccn1-c1ccc(C(=O)O)cc1
IC50 [7]: > 100 µM
IC50 [8]: 37 µM
IC50 [9]: 9 µM

SMILES: O=C(O)/C=C/c1ccc(Cl)c(Cl)c1
Activity [10]: inactive

SMILES: COc1cc(C(=O)O)cc(OC)c1OC
Activity [2]: inactive

SMILES: O=C(O)c1ccc(OCc2ccc(F)cc2)cc1
EC50 ([1]; read-out: EC50): 12 µM

SMILES: COc1cccc(-c2ccc(NC(=O)C3=C(C(=O)O)CCC3)c(F)c2)c1
ΔTm [11]: -0.94 °C

SMILES: O=C(O)c1ccc(OCc2cccc(C(F)(F)F)c2)cc1
EC50 ([1]; read-out: EC50): 18 µM

SMILES: O=C(O)c1ccc(OCc2cccc(-c3ccccc3)c2)cc1
EC50 ([1]; hek293t): Not Determined(Insoluble)

SMILES: O=C(O)c1ccc(OCc2ccc(Cl)cc2)cc1
EC50 ([1]; read-out: EC50): 6 µM

SMILES: C/C(=C\C(=O)O)c1ccc(C(F)(F)F)cc1
EC50 [3]: 28 µM
EC50 [4]: 36 µM
Emax [5]: 157%
EC50 ([1]; read-out: EC50): 76 µM
Emax [6]: 162%

SMILES: O=C(O)c1ccc(Oc2ccccc2)cc1
Activity [2]: inactive

SMILES: Cn1nnc2c(C(=O)O)ncn2c1=O
Activity [2]: inactive

SMILES: N#Cc1c(F)c(F)cc(C(=O)O)c1F
IC50 [7]: > 100 µM
IC50 [9]: > 100 µM

SMILES: O=C(O)CN(CCO)CCO
Activity [2]: inactive

SMILES: O=C(O)C(c1ccccc1)(c1ccccc1)c1ccccc1
IC50 [7]: > 100 µM
IC50 [9]: > 100 µM
